This is an account of results in patent publication US20200087258A1, “INHIBITOR OF CITRATE TRANSPORTER AND THEIR USE IN THERAPY” (Eternygen GmbH, priority 2017, published 2020).

Structures are written as SMILES. pIC50: −log10 of the molar value.

The pIC50 is the IC50 on a negative log10 scale, so that one unit is a factor of ten.

For one experiment, the target named is T1, INDY (Homo sapiens, UniProt Q86YT5). Nature of the experiment: 14C-citrate uptake in HEK293 cells overexpressing recombinant human INDY (NaCT). Format: cell-based. Set-up: expressed in transfected cells; host or cells: HEK293.
T1 sequence (Q86YT5 whole entry): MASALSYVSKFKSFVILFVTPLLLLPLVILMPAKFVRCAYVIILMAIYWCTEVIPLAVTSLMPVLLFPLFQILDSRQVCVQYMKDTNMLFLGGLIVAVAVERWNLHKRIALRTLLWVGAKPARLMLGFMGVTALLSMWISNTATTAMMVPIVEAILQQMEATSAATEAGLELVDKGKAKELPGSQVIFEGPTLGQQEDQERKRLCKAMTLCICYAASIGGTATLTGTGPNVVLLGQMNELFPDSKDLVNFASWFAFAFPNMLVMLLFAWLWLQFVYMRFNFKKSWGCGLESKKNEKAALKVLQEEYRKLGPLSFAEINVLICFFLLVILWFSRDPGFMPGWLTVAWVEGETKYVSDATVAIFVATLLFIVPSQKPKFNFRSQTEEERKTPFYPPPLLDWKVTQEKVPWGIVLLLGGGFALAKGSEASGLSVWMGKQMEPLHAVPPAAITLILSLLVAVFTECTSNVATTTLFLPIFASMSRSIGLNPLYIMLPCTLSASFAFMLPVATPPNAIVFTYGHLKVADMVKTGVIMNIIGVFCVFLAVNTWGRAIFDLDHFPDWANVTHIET
Details: not given
As for the experimental part:
(§1) The compound was obtained by screening of a library containing more than 50,000 lead-like compounds and fragments. The library was tested using a functional citrate uptake assay with HEK293 cells overexpressing recombinant human INDY. The following hit confirmation was conducted in the same assay system. To confirm the activity of selected compounds on the target INDY another cell assay was conducted. In this assay system citrate uptake was measured using HepG2 cells which endogenously express INDY. Furthermore selectivity of selected compounds was tested for two other transporters in different assay systems. The first transporter was the glutamate transporter GLT-1 tested in a glutamate uptake assays using HEK293 cells overexpressing recombinant human GLT-1. The second transporter was the glucose transporter GLUT1 tested in a glucose uptake assay using Huh-7 cells which endogenously express GLUT1. Compounds were considered to be selective with an at least 5-fold higher activity for INDY than for the other two transporters.
(§2) Cells were maintained in cell medium using cell culture grade flasks (CellSTACK Corning, 500 cm2 dishes or T175 depending on cell number). The selection antibiotic and G418 (800 μg/ml) was added during cultivation but not for seeding into assay plates. For splitting, cells were washed with PBS (w/o Ca2+, Mg2+, phenol red) and detached with Trypsin/EDTA. Throughout cultivation cells were kept sub-confluent. Detached cells (50,000 cells/well) were seeded in 96-well plates (white, clear bottom from Corning #655098) and incubated over night before usage in the assay. The following media were used. For HEK293 cells expressing INDY MEM (PAA)+10% FCS+1×P/S+2 mM L-Gln; for HEK293 cells expressing GLT-1 DMEM (Gibco)+10% FCS+400 µg/ml G418; for Huh7 cells DMEM (Gibco)+10% FCS+2 mM L-Gin (+1×P/S); for HepG2 cells MEM (PAA, Cat # E15-024)+10% FCS+2 mM L-Gin+1×NEAA+1 mM Na-Pyruvat
(§3) The following assay buffers for the particular uptake reaction were used. Citrate uptake buffer: 120 mM NaCl, 5.4 mM KCl, 0.8 mM MgSO4, 5 mM glucose, 1.8 mM CaCl2, 25 mM Hepes, 25 mM MES, pH 6.5. Glutamate uptake buffer: HBSS, 1 mM CaCl2, 1 mM MgCl2, 20 mM Hepes pH 7.4. Glucose uptake buffer: 25 mM Hepes+25 mM MES pH 7.4, 120 mM NaCl, 5.4 mM KCl, 1.8 mM CaCl2, 0.8 mM MgSO4.
INDY mediated citrate uptake was determined in HEK293 cells. To determine the uptake of ^14C labelled citrate into cells, HEK293 cells over-expressing human NaCT were used. Cloning of human NaCT was done in analogy as described in Birkenfeld et al. (Birkenfeld et al., 2011, Cell Metabolism 14, 184-195, 2011).
Human NaCT HEK293 cells were seeded into white clear-bottom 96-well plates (50,000/well) in the presence of 4 μg/ml Poly-D-Lysine and incubated at 37° C. for 16-24 hours. On the days of the assay the plates were washed once with assay buffer using automated washing/LS 405 Selectors, BioTek ending with a buffer volume of 40 μl. Then 5 μl of compound solution in assay buffer was added and incubated for 5-30 min at 37° C. in cell incubator, HERA cell Heraeus. Afterwards 10 μl of substrate 14C-citrate ([…]/[…] per well) were added and incubated for another 20-90 min at 37° C. in cell incubator, HERAcell. Then plates were washed twice with 200 μl ice-cold assay buffer and residual volume was discarded. For cell lysis 50 μl ice-cold NaOH (100 mM) was added and incubated for 15 minutes at RT on a plate shaker. Finally, 200 μl scintillation fluid (scintillator OptiPhase Supermix, Perkin Elmer) was added. After 15 min incubation at RT without shaking, plates were measured using a TopCount reader system (Perkin Elmer). As a positive control 10 mM citrate was applied. It is possible to use this assay also in analogy in a 384-well plate format.
As for `O=C(NCc1ccccn1)C1CCN(S(=O)(=O)c2cccc(Cl)c2Cl)CC1` [Example 83, 1-(2,3-dichlorobenzenesulfonyl)-N-[(pyridin-2-yl)methyl]pipendine-4-carboxamide], the pIC50 was under 4.70. On the same count and under the same terms, for `COC(=O)c1cccc(S(=O)(=O)N2CCC(C(=O)NCc3ccccc3F)CC2)c1` [Example 88, methyl 3-[(4-{[(2-fluorophenyl)methyl]carbamoyl}piperidin-1-yl)sulfonyl]benzoate] the value was under 4.70; for `COC(=O)c1ccc(S(=O)(=O)N2CCC(C(=O)NCc3ccccc3F)CC2)cc1` [Example 89, methyl 4-[(4-{[(2-fluorophenyl)methyl]carbamoyl}piperidin-1-yl)sulfonyl]benzoate], under 4.70. On the same count and under the same terms, next, `O=C(O)c1cccc(S(=O)(=O)N2CCC(C(=O)NCc3ccccc3F)CC2)c1` [Example 90, 3-[(4-{[(2-fluorophenyl)methyl]carbamoyl}piperidin-1-yl)sulfonyl]benzoic acid]: under 4.70; `O=C(O)c1ccc(S(=O)(=O)N2CCC(C(=O)NCc3ccccc3F)CC2)cc1` [Example 91, 4-[(4-{[(2-fluorophenyl)methyl]carbamoyl}piperidin-1-yl)sulfonyl]benzoic acid]: under 4.70.

For the molecule `O=C(NCc1ccccn1)C1CCN(S(=O)(=O)c2cccc(OC(F)(F)F)c2)CC1` [Example 93, N-[(pyridin-2-yl)methyl]-1-[3-(trifluoromethoxy)benzenesulfonyl]piperidine-4-carboxamide], the pIC50 is 4.79. The same measure, in the same setting: for `O=Cc1ccc(S(=O)(=O)N2CCC(C(=O)NCc3ccccc3F)CC2)cc1` [Example 94, N-[(2-fluorophenyl)methyl]-1-(4-formylbenzenesulfonyl)piperidine-4-carboxamide] the value was under 4.70. As to `NCc1ccccc1CNC(=O)C1CCN(S(=O)(=O)c2cc(Cl)cc(Cl)c2)CC1` [Example 98, N-([2-(aminomethyl)phenyl]methyl)-1-(3,5-dichlorobenzenesulfonyl)piperidine-4-carboxamide], the negative logarithm of the IC50 (pIC50) is under 4.70. As for `O=C(NCc1ccccc1F)C1CCN(S(=O)(=O)c2ccc(CO)cc2)CC1` [Example 100, N-[(2-fluorophenyl)methyl]-1-[4-(hydroxymethyl)benzenesulfonyl]piperidine-4-carboxamide], the pIC50 was under 4.70. On the same count and under the same terms, next, `CN(C)CCOc1ccc(S(=O)(=O)N2CCC(C(=O)NCc3ccccc3F)CC2)cc1` [Example 102, 1-(4-[2-(dimethylamino)ethoxy]benzenesulfonyl)-N-[(2-fluorophenyl)methyl]piperidine-4-carboxamide]: under 4.70. For the molecule `O=C(NCc1ccc(CO)cc1)C1CCN(S(=O)(=O)c2ccc(C(F)(F)F)cc2)CC1` [Example 104, N-([4-(hydroxymethyl)phenyl]methyl)-1-[4-(trifluoromethyl)benzenesulfonyl]piperidine-4-carboxamide], the pIC50 was under 4.70. Same read-out and setting: for `O=C(NCc1ccccc1F)C1CCN(S(=O)(=O)c2ccc(CN3CCCC3)cc2)CC1` [Example 105, N-[(2-fluorophenyl)methyl]-1-{4-[(pyrrolidin-1-yl)methyl]benzenesulfonyl}piperidine-4-carboxamide] the value was under 4.70; for `CC(=O)c1cccc(S(=O)(=O)N2CCC(C(=O)NCc3ccccc3F)CC2)c1` [Example 106, 1-(3-acetylbenzenesulfonyl)-N-[(2-fluorophenyl)methyl]piperidine-4-carboxamide], 4.95. The same measure, in the same setting: for `CC(O)c1cccc(S(=O)(=O)N2CCC(C(=O)NCc3ccccc3F)CC2)c1` (stereo not drawn) [Example 107, N-[(2-fluorophenyl)methyl]-1-[3-(1-hydroxyethyl)benzenesulfonyl]piperidine-4-carboxamide] the value was 4.88; for `C/C(=N\O)c1cccc(S(=O)(=O)N2CCC(C(=O)NCc3ccccc3F)CC2)c1` [Example 108, N-[(2-fluorophenyl)methyl]-1-{3-[(1E)-1-(hydroxyimino)ethyl]benzenesulfonyl}piperidine-4-carboxamide], 4.69; for `CCCNC(C)c1cccc(S(=O)(=O)N2CCC(C(=O)NCc3ccccc3F)CC2)c1` (stereo not drawn) [Example 109, N-[(2-fluorophenyl)methyl]-1-{3-[1-(propylamino)ethyl]benzenesulfonyl}piperidine-4-carboxamide], under 4.70. Same read-out and setting: for `CNC(C)c1cccc(S(=O)(=O)N2CCC(C(=O)NCc3ccccc3F)CC2)c1` (stereo not drawn) [Example 110, N-[(2-fluorophenyl)methyl]-1-{3-[1-(methylamino)ethyl]benzenesulfonyl}piperidine-4-carboxamide] the value was under 4.70; for `CCN(CC)C(C)c1cccc(S(=O)(=O)N2CCC(C(=O)NCc3ccccc3F)CC2)c1` (stereo not drawn) [Example 113, 1-{3-[1-(diethylamino)ethyl]benzenesulfonyl}-N-[(2-fluorophenyl)methyl]piperidine-4-carboxamide], under 4.70; for `O=C(O)c1cccc(CNC(=O)C2CCN(S(=O)(=O)c3cc(Cl)cc(Cl)c3)CC2)c1` [Example 119, 3-({[1-(3,5-dichlorobenzenesulfonyl)piperidin-4-yl]formamido}methyl)benzoic acid], under 4.70.

Regarding `Cc1cc(S(=O)(=O)N2CCC(C(=O)NCc3ccccn3)CC2)ccc1Cl` [Example 121, 1-(4-chloro-3-methylbenzenesulfonyl)-N-[(pyridin-2-yl)methyl]piperidine-4-carboxamide], the pIC50 was 4.73. Still for that read-out and setting: next, `Cc1ccc(S(=O)(=O)N2CCC(C(=O)NCc3ccccn3)CC2)cc1Cl` [Example 122, 1-(3-chloro-4-methylbenzenesulfonyl)-N-[(pyridin-2-yl)methyl]piperidine-4-carboxamide]: 4.73.

On to `CN(Cc1ccccn1)C(=O)C1CCN(S(=O)(=O)c2cc(Cl)cc(Cl)c2)CC1` [Example 128, 1-(3,5-dichlorobenzenesulfonyl)-N-methyl-N-[(pyridin-2-yl)methyl]piperidine-4-carboxamide], for which the pIC50 is under 4.70.

The target of another experiment is T1, INDY. The experiment in a line: 14C-citrate uptake in HepG2 cells endogenously expressing INDY (NaCT). Format: cell-based. The settings on record: endogenous INDY. As for the experimental part: as §1, §2, §3
INDY mediated citrate uptake was also determined in HepG2 cells. To determine the uptake of ^14C labelled citrate into cells, HepG2 cells endogenously expressing human NaCT were used. (Gopal et al. 2007 Am J Physiol Gastrointest Liver Physiol 292).
HepG2 cells were seeded into white clear-bottom 96-well plates (50,000/well) coated with collagen and incubated at 37° C. for 16-24 hours. After that plates were washed once with assay buffer using automated washing/LS 405 Selectors, BioTek ending with a buffer volume of 40 μl. Then 5 μl of compound solution in assay buffer was added and incubated for 5 min at 37° C. in cell incubator, HERA cell Heraeus. Afterwards 10 μl of substrate 14C-citrate (10 nM) were added and incubated for another 90 min at 37° C. in cell incubator, HERAcell. Then plates were washed 3× with 200 μl buffer and […] cell lysis induced by adding 50 μl ice-cold NaOH (100 mM). Plates were incubated for 25 min at RT on a plate shaker and afterwards 200 μl scintillation fluid was added and incubated for 15 min on a plate shaker at RT and for another 15 min without shaking at RT. Plates were measured using a TopCount system. As a positive control 5 mM citrate was applied. It is possible to use this assay also in analogy in a 384-well plate format.
In turn, `O=C(NCc1ccccn1)C1CCN(S(=O)(=O)/C=C/c2ccccc2)CC1` [Example 3, 1-[(E)-2-phenylethenesulfonyl]-N-(pyridin-2-ylmethyl)piperidine-4-carboxamide] had a pIC50 of 4.95. For the molecule `COc1ccc(S(=O)(=O)N2CCC(C(=O)NCc3ccccc3F)CC2)cc1` [Example 4, N-[(2-fluorophenyl)methyl]-1-(4-methoxybenzenesulfonyl) piperidine-4-carboxamide], the pIC50 is 5.24.
